Test results as given in article PMC12019328, “Discovery of an ApoE4-targeted small-molecule SirT1 enhancer for the treatment of Alzheimer’s disease” (Scientific Reports, 2025).
Several values for one entry are separate records, joined by “and”; a condition that tells them apart may be missing. Equal entries are not always repeated.

What was measured:
[1] = In vivo pharmacokinetic analysis, brain levels after oral gavage; set-up: species or system C57BL/6J mice; details: single time point one hour, oral gavage 30 mg/Kg, n = 1; 30 mg/kg
Procedure: […] One hour later, mice were euthanized by pentobarbital over-anesthesia and trans-cardial collection of blood for isolation of plasma by centrifugation at 10,000 x g for 10 min at 4 °C. Brain tissue was collected for analysis, frozen on dry ice and stored at -80 °C before analysis.
For LC/MS/MS analysis, tissue samples were homogenized in a bead beater using 5 volumes of ice-cold 80% acetonitrile (1/5; mg of tissue/ µL of 80% ACN). Solutions were clarified by centrifugation (16,000 x g, 5 min) and the supernatants were transferred to new tubes and lyophilized. Samples were reconstituted in 100 µL of 50/50/0.1 (water/acetonitrile/formic acid) before analysis via liquid chromatography-tandem mass spectrometry.
A 6460 triple quadrupole mass spectrometer (Agilent Technologies) coupled to a 1290 Infinity HPLC system (Agilent Technologies) with a Phenomenex analytical column (Kinetex 1.7 μm C18 100 Å 100 × 2.1 mm) was used for HPLC. The HPLC method utilized a mixture of solvent A (99.9/1 water/formic acid) and solvent B (99.9/1 acetonitrile/formic acid) and a gradient was used for the elution of the compounds (min/%B: 0/20, 3/20, 19/99, 20/99, 21/20, 30/20).
An internal standard (IS; Reserpine) was added to every sample to account for compound loss during sample processing. Standards were made in drug naïve brain and plasma with increasing amounts of DDL-214- (S1,S2: 0.1 pmol/ S3,S4: 1 pmol/ S5,S6: 10 pmol/ S7,S8: 100 pmol/ S9,S10: 1000 pmol). The standard curve was made by plotting the amount of each compound per standard vs. the ratio of measured chromatographic peak areas corresponding to DDL-214 (DDL-214 -/Reserpine). The trendline equation was then used to calculate the absolute concentrations of DDL-214/-218/-219 in brain tissue and plasma.

hippocampal proteins = assay: Global proteomics on hippocampal brain tissue; type: in vivo, mice
Procedure: Hippocampal brain tissue from both DDL-218- and vehicle-treated mice underwent global proteomics analysis, as described in Supplementary Methods.
Liquid chromatography tandem mass spectrometry (LC-MS/MS) was used for proteomic analysis.
Proteins from hippocampal tissue from mice treated with either DDL-218 or vehicle were diluted in T-PER buffer and concentrations adjusted after BCA protein quantitation assay (Thermo Fisher Scientific). The protein disulfide bonds were reduced and alkylated by treatment with 10 mM tris (2-carboxyethyl) phosphine (TCEP) and 40 mM chloroacetamide (CAA) for 10 min at 95°C. SP3 beads were added to each sample concentrated at 25 μL of beads for 100 μg of protein. Samples were washed 3 times with 2x the sample volume of 80% ethanol in the DynaMag™-2 Magnet and protein solutions diluted 5-fold with 50 mM TEAB.
Trypsin was added in a 1:100 (mass trypsin:mass total protein) ratio to target proteins, and the samples were incubated overnight on a rocker at 37°C.
Samples were centrifuged at 16,000 x g for 5 minutes at room temperature. A colorimetric peptide assay (Thermo Fischer Scientific) was run on a sample of each supernatant. The results were used to aliquot […] of protein from each sample, which were then lyophilized in the SpeedVac. Samples were reconstituted in 100mM TEAB, individually labelled using TMT Isobaric Label Reagent Set (Thermo Fischer Scientific), and incubated at room temperature for one hour. Each sample was then incubated at room temperature for 15 minutes with 5uL of 5% hydroxylamine and lyophilized in the SpeedVac. Subsequently, samples were reconstituted in 2% acetonitrile + 0.1% TFA, and a 5uL aliquot of each sample was pooled together. The pooled sample was desalted with C18 Stagetips made from Empore C18 solid phase extraction disks and lyophilized in the SpeedVac. It was then reconstituted in 2% acetonitrile + 0.1% Formic Acid (FA) and transferred to an autosampler vial. LC/MS2 was performed using a nanoLC and orbitrap mass analyzer using a C18 column and DDA/MS2 mass spectrometer method.
Samples were injected (5 μL) onto a reverse phase nanobore HPLC column (AcuTech Scientific, C18, 1.8 μm particle size, 360 μm x 20 cm, 150 μm ID), equilibrated in solvent E and eluted (500 nL/min) with an increasing concentration of solvent F (acetonitrile/water/FA, 98/2/0.1, v/v/v: min/% F; 0/0, 5/3, 18/7, […]
(Framingham, MA)). The effluent from the column was directed to a nanospray ionization source connected to a hybrid quadrupole-Orbitrap mass spectrometer (Q Exactive Plus, Thermo Fisher Scientific) operating in the positive ion data-dependent mode alternating between a full scan (m/z 350-1700, automated gain control (AGC) target 3 x 106, 50 ms maximum injection time, FWHM resolution 70,000 at m/z 200) and up to 10 MS/MS scans (quadrupole isolation of charge states ≥ 2, isolation width 0.7 Th) with optimized fragmentation conditions (normalized collision energy of 32, dynamic exclusion of 30 s, AGC target 1 x 105, 100 ms maximum injection time, FWHM resolution 35,000 at m/z 200). The raw data from both analyses was processed using Proteome Discoverer™ (version 2.4). Tryptic peptides containing amino acid sequences unique to individual proteins were used for identification/quantification of each protein.
Raw data was submitted to a database search using Proteome Discoverer 3.1 [ThermoFischer Scientific]. Using the results for TMT labeling efficiency, sample volumes were adjusted to achieve an equal ratio of protein across TMT labeled samples. Remaining samples were pooled in equal ratio, and the pooled sample was desalted and lyophilized in the SpeedVac overnight.
The pooled sample was fractionated using Pierce High pH Reversed-Phase Peptide Fractionation Kit (Thermo Fischer Scientific) according to the manufacturer’s protocol. The fractions were dried in the SpeedVac and reconstituted in 0.1% formic acid. Samples were transferred to autosampler vials and LC/MS2 was performed as previously described. […]

SMILES: CC(N)C(=O)OC(C)(C)Cc1ccncc1 (centres unmarked) [DDL-218]
- brain levels [1]: ~ 8400 ng/g and 37.8 µM
- Abundance Ratio (DDL218/Veh) (hippocampal proteins; Cep170, hippocampal tissue): 1.36
- Abundance Ratio (DDL218/Veh) (hippocampal proteins; Fxyd7, hippocampal tissue): 1.317
- Abundance Ratio (DDL218/Veh) (hippocampal proteins; Luc7l2, hippocampal tissue): 0.793
- Abundance Ratio (DDL218/Veh) (hippocampal proteins; Nubpl, hippocampal tissue): 1.374
- Abundance Ratio (DDL218/Veh) (hippocampal proteins; Ptprn2, hippocampal tissue): 1.411
- Abundance Ratio (DDL218/Veh) (hippocampal proteins; Rpl31, hippocampal tissue): 1.22
- Abundance Ratio (DDL218/Veh) (hippocampal proteins; Rps20, hippocampal tissue): 1.223
- Abundance Ratio (DDL218/Veh) (hippocampal proteins; Scfd2, hippocampal tissue): 1.338
- Abundance Ratio (DDL218/Veh) (hippocampal proteins; Shisa6, hippocampal tissue): 1.219
- Abundance Ratio (DDL218/Veh) (hippocampal proteins; Tbc1d17, hippocampal tissue): 1.25
